Data as given in patent publication US6562843B1, “Substituted 3-pyridyl-4-arylpyrroles, and related therapeutic and prophylactic methods” (Ortho-McNeil Pharmaceutical, Inc., priority 1999, dated 2003).
Counter-ions that a name gives are not always drawn.

What was measured:
TNF-α production = test: In-Vitro Whole Cell Assay for TNF-α Inhibition (LPS-stimulated PBMC, ELISA); type: cell-based; settings: LPS overnight, TNF-α by ELISA
Experimental: B. In-Vitro Whole Cell Assay for TNF-α Inhibition
Freshly obtained venous blood was anticoagulated with heparin, diluted with an equal volume of phosphate buffered saline (“PBS”) and placed in a sterile tube or other container. Aliquots (30 mL) of this mixture were transferred to centrifuge tubes which were underlaid with Ficoll-Hypaque (15 mL). The prepared tubes were centrifuged at 400×g, without braking, for 30 min at room temperature. Approximately ½ to ⅔ of the platelet layer above the mononuclear cell band was removed with a pipette. The majority of the mononuclear cell layer was carefully removed using a pipette and these PBMC's were diluted with PBS and spun at 600×g for 15 min. The resulting PBMC's were washed with another portion of PBS and spun at 400×g for 10 min at room temperature. The recovered pellets were diluted in low endotoxin RPMI/1% FCS culture medium, and gave a cell concentration of 0.5-2.0×10^6 PMBC/mL. A small volume of the suspension was removed for counting on a hemocytometer and the remaining preparation was centrifuged at 200×g for 15 min at room temperature. The recovered pelleted PMBC's were resuspended in RPMI/1% FCS to a concentration of 1.67×10^6/mL.
To run the assay, the PBMC suspension (180 μL) was transferred to duplicate wells of a 96-well flat-bottom microtiter plate and incubated for 1 h at 37° C. A solution of test compound (10 μL: prepared at 20× the desired final concentration) was added to each well and the plate was incubated for 1 h at 37° C. A solution (10 μL) of LPS in RPMI/1% FCS (200 ng/mL) was added and the wells were incubated overnight at 37° C. The supernate (100 μL) was removed from each well and diluted with RPMI/1% FCS (400 μL). The samples were analyzed for TNF-α using a commercial ELISA kit (Genzyme).
The compounds were tested for their ability to inhibit TNF-α production. The IC50 nM results are listed for the indicated compounds.

[1] = tested on: LPS-induced TNF-α production; test: In Vivo Rodent Assay for Inhibition of TNF-α Production (mice); set-up: species or system Mice (BALB/cJ females); settings: oral dosing, LPS 1 mg/kg i.p., serum TNF-α; for inhibition in vivo at 10 mg/kg / inhibition in vivo at 25 mg/kg: Mus musculus, 1 h
Experimental: C. In Vivo Rodent Assay for Inhibition of TNF-α Production
Mice (BALB/cJ females, Jackson Laboratories) or rats (Lewis males, Charles River) were fasted for 30 min prior to oral dosing with 5-10 mL/kg of test compound at 5-50 mg/kg. Thirty minutes after dosing, the animals were injected intraperitoneally with LPS at 1 mg/kg and returned to their cages for 1 h. Animals were anesthetized by CO2, exsanguinated by cardiac puncture and whole blood collected (0.1-0.7 mL). The blood was allowed to clot and serum was transferred to a centrifuge tube. This sample was centrifuged, and serum was collected, aliquoted and frozen at −80° C. Samples were tested by commercial ELISA's for TNF-α (Endogen for mouse TNF-α and Biosource for rat TNF-α).

[2] = target: T1, purified recombinant p38 (6×His-p38 expressed in E.coli) (Homo sapiens, UniProt Q16539); test: p38 Inhibition In-Vitro Enzyme Assay; type: biochemical; settings: myelin basic protein substrate, 33P-ATP; for inhibition at 10 µM: read-out: % p38 inhib @ 10 μM
T1 construct: 6xHis; made in house; host or cells: E. coli
T1 sequence (Q16539 whole entry): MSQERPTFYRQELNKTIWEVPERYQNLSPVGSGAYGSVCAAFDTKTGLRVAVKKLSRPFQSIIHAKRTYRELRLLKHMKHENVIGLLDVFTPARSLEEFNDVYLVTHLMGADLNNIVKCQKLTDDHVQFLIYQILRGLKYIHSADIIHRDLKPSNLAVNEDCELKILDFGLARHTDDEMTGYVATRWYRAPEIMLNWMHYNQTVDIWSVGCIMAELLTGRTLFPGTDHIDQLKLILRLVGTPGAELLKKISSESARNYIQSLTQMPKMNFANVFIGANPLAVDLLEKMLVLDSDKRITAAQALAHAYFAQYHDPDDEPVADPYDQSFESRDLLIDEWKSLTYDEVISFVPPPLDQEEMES
Experimental: A. p38 Inhibition In-Vitro Enzyme Assay
A solution (38 μL) of purified recombinant p38 (6×His-p38 expressed in E.coli), myelin basic protein substrate (determined empirically), and a buffer of pH 7.5 (Hepes:25 mM, MgCl2:10 mM, MnCl2:10 mM) were added to 92 wells of a 96-well round bottom polypropylene plate. The amount of enzyme was determined empirically based on the linear range of the assay and the acceptable signal to noise ratio. The remaining wells were used for control “CTRL”) and background (“BKG”). The CTRL was prepared with the enzyme, substrate buffer and 2% DMSO, and the BKG was prepared with substrate buffer and 2% DMSO.
A solution (12 μL) of the test compound in DMSO was added to the testing wells. […] The ATP/^33P-ATP solution (10 μL containing 50 μM unlabeled ATP and 1 μCi ^33P-ATP) was added to all wells and the completed plates were mixed and incubated at 30° C. for 30 min. Ice-cold 50% TCA/10 mM sodium phosphate (60 μL) was added to each well and the plates were kept on ice for 15 min. The contents of each well were transferred to the wells of a 96-well filterplate (Millipore, MultiScreen-DP) and the filterplate was placed on a vacuum manifold fitted with a waste collection tray. The wells were washed five times with 10% TCA/10 mM sodium phosphate (200 μL) under vacuum. MicroScint-20 scintillant was added, and the plates were sealed using Topseal-S sheets and counted in a Packard TopCount scintillation counter using a ^33P liquid program with color quench correction, where the output is in color quench-corrected cpm. The % inhibition of each test compound as shown in Table 2 was calculated by the following formula: % inhibition=[1−(sample−BKG)/(CTRL−BKG)]×100.
[…] In addition, the IC50 was calculated for some compounds using the Deltagraph 4-parameter curve-fitting program.

| SMILES | IC50 (TNF-α production) [nM] | other results |
| --- | --- | --- |
| Fc1ccc(-c2cn(CCN3CCOCC3)c(CCCc3ccccc3)c2-c2ccncc2)cc1 [compound 43] | 1 | inhibition in vivo at 10 mg/kg ([1]; 10 mg/kg): 93%; inhibition in vivo at 25 mg/kg ([1]; 25 mg/kg): 93% |
| Cn1cc(-c2ccncc2)c(-c2cccc(F)c2)c1 [compound 10] | 125 |  |
| COc1cccc(-c2cn(-c3ccccn3)cc2-c2ccncc2)c1 [compound 20] | 150 |  |
| COc1cccc(-c2cn(C)cc2-c2ccncc2)c1 [compound 14] | 55 | % p38 inhib @ 10 μM [2]: 43%; TNF-α % Inhibition Mouse ([1]; 10 mg/kg): 41%; TNF-α % Inhibition Mouse ([1]; 25 mg/kg): 71% |
| COc1cccc(-c2c[nH]cc2-c2ccncn2)c1 [compound 24] | 250 |  |
| COc1cccc(-c2cn(CCCc3ccccc3)cc2-c2ccncc2)c1 [compound 23] | 2000 |  |
| Cn1cc(-c2ccncc2)c(-c2cccc([N+](=O)[O-])c2)c1 [compound 11] | 100 | inhibition in vivo at 10 mg/kg ([1]; 10 mg/kg): 74%; inhibition in vivo at 25 mg/kg ([1]; 25 mg/kg): 94% |
| Nc1ccc(-n2cc(-c3ccc(F)cc3)c(-c3ccncc3)c2CCCc2ccccc2)cc1 [compound 33, 1-(4-Aminophenyl)-4-(4-fluorophenyl)-2-(3-phenylpropyl)-3-(4-pyridyl)pyrrole] | 8 | inhibition at 10 µM [2]: 51% |
| Cn1cc(-c2ccncc2)c(-c2ccc([S+](C)[O-])cc2)c1 (stereo not drawn) [compound 37] | 3000 |  |
| Fc1ccc(-c2c[nH]cc2-c2ccncc2)cc1 [compound 27] | 90 | inhibition in vivo at 10 mg/kg ([1]; 10 mg/kg): 73%; inhibition in vivo at 25 mg/kg ([1]; 25 mg/kg): 100% |
| O=[N+]([O-])c1ccc(-n2cc(-c3ccncc3)c(-c3ccc(F)cc3)c2)cc1 [compound 30] | 2 | % p38 inhib @ 10 μM [2]: 70%; TNF-α % Inhibition Mouse ([1]; 25 mg/kg): 53% |
| O=[N+]([O-])c1ccc(-n2cc(-c3ccc(F)cc3)c(-c3ccncc3)c2CCCc2ccccc2)cc1 [compound 31, 4-(4-Fluorophenyl)-1-(4-nitrophenyl)-2-(3-phenylpropyl)-3-(4-pyridyl)pyrrole] | 15 | inhibition at 10 µM [2]: 67%; inhibition in vivo at 10 mg/kg ([1]; 10 mg/kg): 47% |
| Cn1cc(-c2ccncc2)c(-c2ccc(F)c(C(F)(F)F)c2)c1 [compound 7] | 100 | inhibition in vivo at 10 mg/kg ([1]; 10 mg/kg): 61%; inhibition in vivo at 25 mg/kg ([1]; 25 mg/kg): 79% |
| CN(C)c1ccc(-c2cn(C)cc2-c2ccncc2)cc1 [compound 36] | 500 |  |
| COc1cccc(-c2cn(-c3ccc(NC(C)=O)cc3)cc2-c2ccncc2)c1 [compound 16] | 75 | TNF-α % Inhibition Mouse ([1]; 25 mg/kg): 50% |
| Fc1ccc(-c2c[nH]cc2-c2ccncc2)cc1F [compound 1] | 20 | TNF-α % Inhibition Mouse ([1]; 25 mg/kg): 96% |
| CN1CCCC1CCn1cc(-c2ccc(F)cc2)c(-c2ccncc2)c1CCCc1ccccc1 (stereo not drawn) [compound 41] | 5 | inhibition in vivo at 10 mg/kg ([1]; 10 mg/kg): 100%; inhibition in vivo at 25 mg/kg ([1]; 25 mg/kg): 100% |
| Cn1cc(-c2ccncc2)c(-c2ccc(F)cc2)c1 [compound 29, 1-Methyl-3-(4-fluorophenyl)-4-(4-pyridyl)pyrrole] | 200 | inhibition at 10 µM [2]: 34% |
| CSc1ccc(-c2cn(C)cc2-c2ccncc2)cc1 [compound 35] | 250 |  |
| COc1cccc(-c2cn(-c3ccc([N+](=O)[O-])cc3[N+](=O)[O-])cc2-c2ccncc2)c1 [compound 21] | 80 |  |
| Fc1ccc(-c2cn(CCCN3CCCCC3)c(CCCc3ccccc3)c2-c2ccncc2)cc1 [compound 39] | 5 | inhibition in vivo at 10 mg/kg ([1]; 10 mg/kg): 36%; inhibition in vivo at 25 mg/kg ([1]; 25 mg/kg): 100% |

| SMILES | IC50 (TNF-α production) [nM] | other results |
| --- | --- | --- |
| Cn1cc(-c2ccncc2)c(-c2ccncc2)c1 [compound 34] | 3000 |  |
| COc1cccc(-c2cn(-c3ccc(S(C)(=O)=O)cc3)cc2-c2ccncc2)c1 [compound 19] | 30 | TNF-α % Inhibition Mouse ([1]; 25 mg/kg): −127% |
| COc1cccc(-c2cn(-c3ccc(N)cc3)cc2-c2ccncc2)c1 [compound 17] | 95 | TNF-α % Inhibition Mouse ([1]; 25 mg/kg): 66% |
| Cn1cc(-c2ccncc2)c(-c2cc(F)cc(C(F)(F)F)c2)c1 [compound 8] | 1500 |  |
| COc1cccc(-c2c[nH]cc2-c2ccncc2)c1 [compound 13, 3-(3-Methoxyphenyl)-4-(4-pyridyl)pyrrole] | 55 |  |
| CS(=O)(=O)c1ccc(-n2cc(-c3ccncc3)c(-c3ccc(F)c(F)c3)c2)cc1 [compound 5] | 30 |  |
| Cn1cc(-c2ccncc2)c(-c2ccsc2)c1 [compound 25] | 900 |  |
| N#Cc1ccc(-n2cc(-c3ccncc3)c(-c3ccc(F)c(F)c3)c2)cc1 [compound 4] | 2 | inhibition at 10 µM [2]: 21% |
| Cn1cc(-c2ccncc2)c(-c2cc(F)cc(F)c2)c1 [compound 6] | 175 |  |
| Cn1cc(-c2ccccc2)c(-c2ccncc2)c1 [compound 38] | 350 |  |
| CN(C)CCCn1cc(-c2ccc(F)cc2)c(-c2ccncc2)c1CCCc1ccccc1 [compound 44] | 8 | inhibition in vivo at 10 mg/kg ([1]; 10 mg/kg): 100%; inhibition in vivo at 25 mg/kg ([1]; 25 mg/kg): 100% |
| Cn1cc(-c2ccncc2)c(-c2ccc(F)c(F)c2)c1 [compound 2] | 30 | % p38 inhib @ 10 μM [2]: 15% |
| COc1cccc(-c2cn(-c3ccc([N+](=O)[O-])cc3)cc2-c2ccncc2)c1 [compound 15] | 20 |  |
| Fc1ccc(-c2cn(CCN3CCCCC3)c(CCCc3ccccc3)c2-c2ccncc2)cc1 [compound 40] | 3 | inhibition in vivo at 10 mg/kg ([1]; 10 mg/kg): 96%; inhibition in vivo at 25 mg/kg ([1]; 25 mg/kg): 96% |
| Fc1ccc(-c2c[nH]c(CCCN3CCOCC3)c2-c2ccncc2)cc1 [compound 47, 4-(4-Fluorophenyl)-2-(3-morpholinopropyl)-3-(4-pyridyl)pyrrole] | 177 | inhibition in vivo at 25 mg/kg ([1]; 25 mg/kg): 77% |
| Cn1cc(-c2ccncc2)c(-c2cccc(C(F)(F)F)c2)c1 [compound 9] | 125 |  |
| COc1ccc(-c2cn(C)cc2-c2ccncc2)cc1 [compound 26] | 2000 |  |
| Fc1ccc(-c2cn(CCN3CCCC3)c(CCCc3ccccc3)c2-c2ccncc2)cc1 [compound 45] | 3 | inhibition in vivo at 10 mg/kg ([1]; 10 mg/kg): 99%; inhibition in vivo at 25 mg/kg ([1]; 25 mg/kg): 99% |
| CN1CCCC(Cn2cc(-c3ccc(F)cc3)c(-c3ccncc3)c2CCCc2ccccc2)C1 (stereo not drawn) [compound 42] | 2 | inhibition in vivo at 10 mg/kg ([1]; 10 mg/kg): 100%; inhibition in vivo at 25 mg/kg ([1]; 25 mg/kg): 100% |
| OCCCc1[nH]cc(-c2ccc(F)cc2)c1-c1ccncc1 [compound 46, 4-(4-Fluorophenyl)-2-(3-hydroxypropyl)-3-(4-pyridyl)pyrrole] | 544 |  |
| Oc1cccc(-c2c[nH]cc2-c2ccncc2)c1 [compound 12, 3-(3-Hydroxyphenyl)-4-(4-pyridyl)pyrrole Hydrobromide] | 300 |  |
